System: C. elegans
Experiment: Efficacy against nematodes (C. elegans motility rating)
Parameters: key: 0: no effect; 7: reduced movement in 24 h; 8: dead in 24 h; 9: dead in 4 h
Settings: observations at 4 h and 24 h postimmersion
Protocol: Evaluation of the Efficacy of a 3-Aryl-4-Hydroxyfuranone Against Nematodes
In this evaluation, cultures of C. elegans are maintained on E. coli lawns on Nematode Growth Agar at 20° C. New cultures are established twice a week. Nematodes for testing are rinsed from plates using M9 Buffer. […] One μL of this solution is added to each well of a 96 well plate. A mixture of C. elegans in M9 Buffer (100 μL) is added to each well, such that approximately 50 worms of mixed stages (L1, L2, L3, L4 and adults) are present in each well at a final concentration of 100 ppm, 150 ppm or […] of test compound. Concentration of test compound may be varied by gradient dilution of the stock DMSO solution. Observations are made under a dissecting microscope at 4 h and 24 h postimmersion. A rating is based on the motility of the larvae and adults, using the rating system shown below.

With `O=C1OC(=Cc2ccc(OCC3CC3)cc2)C(O)=C1c1ccc(Cl)cc1` (mixture of isomers) the Rating (dose 100 ppm) was 7.
With `Cc1c(C=C2OC(=O)C(c3ccc(OC(F)(F)F)cc3)=C2O)cnn1-c1ccc(F)cc1` (mixture of isomers) the Rating (dose 100 ppm) was 0.
In the case of `Cc1c(C=C2OC(=O)C(c3ccc(OC(F)(F)F)cc3)=C2O)cnn1-c1ccccc1` (mixture of isomers), the Rating (dose 100 ppm) is reported as 0.
Compound `Cc1cc(C=C2OC(=O)C(c3ccc(OC(F)(F)F)cc3)=C2O)n(C)n1` (mixture of isomers) has a Rating (dose 100 ppm) of 0.
In the case of `O=C1OC(=Cc2ccc(-n3cncn3)cc2)C(O)=C1c1ccc(OC(F)(F)F)cc1` (mixture of isomers), the Rating (dose 100 ppm) is reported as 9.
For `CN1CCN(c2ccc(C=C3OC(=O)C(c4ccc(OC(F)(F)F)cc4)=C3O)cc2)CC1` (mixture of isomers), the Rating (dose 100 ppm) was 0.
With `N#Cc1ccc(-c2ccc(C=C3OC(=O)C(c4ccc(OC(F)(F)F)cc4)=C3O)cc2)cc1` (mixture of isomers) the Rating (dose 100 ppm) was 9.
In the case of `O=C1OC(=Cc2ccc(-c3ccc(Cl)cc3)cc2)C(O)=C1c1ccc(OC(F)(F)F)cc1` (mixture of isomers), the Rating (dose 100 ppm) is reported as 9.
`O=C1OC(=Cc2ccc(-n3cccc3)cc2)C(O)=C1c1ccc(OC(F)(F)F)cc1` (mixture of isomers) was tested, and the Rating (dose 100 ppm) was 9.
`O=C1OC(=Cc2ccc(-c3cccs3)cc2)C(O)=C1c1ccc(OC(F)(F)F)cc1` (mixture of isomers) gave a Rating (dose 100 ppm) of 9.
Compound `O=C1OC(=Cc2ccc(N3CCOCC3)nc2)C(O)=C1c1ccc(OC(F)(F)F)cc1` (mixture of isomers) has a Rating (dose 100 ppm) of 0.
`O=C1OC(=Cc2ccc(-c3ccccn3)s2)C(O)=C1c1ccc(OC(F)(F)F)cc1` (mixture of isomers) was tested, and the Rating (dose 100 ppm) was 9.
In the case of `O=C1OC(=Cc2ccc(Br)o2)C(O)=C1c1ccc(OC(F)(F)F)cc1` (mixture of isomers), the Rating (dose 100 ppm) is reported as 9.
With `O=C1OC(=Cc2ccc(Oc3ccccc3)nc2)C(O)=C1c1ccc(OC(F)(F)F)cc1` (mixture of isomers) the Rating (dose 100 ppm) was 9.
With `O=C1OC(=Cc2ccc(C(F)(F)F)cc2)C(O)=C1c1ccc(C(F)(F)F)cc1` (mixture of isomers) [R=H; R1=4-CF3—C6H4**; R2=4-CF3—C6H4] the Rating (dose 100 ppm) was 9.
`N#Cc1ccc(C=C2OC(=O)C(c3ccc(C(F)(F)F)cc3)=C2O)cc1` (mixture of isomers) [R=H; R1=4-CF3—C6H4**; R2=4-CN—C6H4] gave a Rating (dose 100 ppm) of 9.
Work on `O=C1OC(=Cc2ccc(Cl)cc2)C(O)=C1c1ccc(C(F)(F)F)cc1` (mixture of isomers) [R=H; R1=4-CF3—C6H4**; R2=4-Cl—C6H4] yielded a Rating (dose 100 ppm) of 9.
With `N#Cc1ccc(C2=C(O)C(=Cc3ccc(Cl)cc3Cl)OC2=O)cc1` (mixture of isomers) [R=H; R1=4-CN—C6H4**; R2=2,4-diCl—C6H4] the Rating (dose 100 ppm) was 9.
Compound `N#Cc1ccc(C2=C(O)C(=Cc3ccc(Cl)c(Cl)c3)OC2=O)cc1` (mixture of isomers) [R=H; R1=4-CN—C6H4**; R2=3,4-diCl—C6H4] has a Rating (dose 100 ppm) of 9.
For `N#Cc1ccc(C2=C(O)C(=Cc3ccc(C(F)(F)F)cc3)OC2=O)cc1` (mixture of isomers) [R=H; R1=4-CN—C6H4**; R2=4-CF3-C6H4], the Rating (dose 100 ppm) was 9.
For `O=C1OC(=Cc2ccccc2C(F)(F)F)C(O)=C1c1ccc(Cl)cc1` (mixture of isomers) [R=H; R1=4-Cl—C6H4**; R2=2-CF3—C6H4], the Rating (dose 100 ppm) was 9.
Compound `O=C1OC(=Cc2cccc(Cl)c2)C(O)=C1c1ccc(Cl)cc1` (mixture of isomers) [R=H; R1=4-Cl—C6H4**; R2=3-Cl—C6H4] has a Rating (dose 150 ppm) of 9.
Work on `O=C1OC(=Cc2ccc(C(F)(F)F)c(F)c2)C(O)=C1c1ccc(Cl)cc1` (mixture of isomers) [R=H; R1=4-Cl—C6H4**; R2=3-F-4-CF3—C6H4] yielded a Rating (dose 100 ppm) of 9.
Compound `O=C1OC(=Cc2ccc(C(F)(F)F)cc2)C(O)=C1c1ccc(Cl)cc1` (mixture of isomers) [R=H; R1=4-Cl—C6H4**; R2=4-CF3—C6H4] has a Rating (dose 100 ppm) of 9.
In the case of `N#Cc1ccc(C=C2OC(=O)C(c3ccc(Cl)cc3)=C2O)cc1` (mixture of isomers) [R=H; R1=4-Cl—C6H4**; R2=4-CN—C6H4], the Rating (dose 150 ppm) is reported as 9.
In the case of `O=C1OC(=Cc2ccc(SC(F)(F)F)cc2)C(O)=C1c1ccc(Cl)cc1` (mixture of isomers) [R=H; R1=4-Cl—C6H4**; R2=4-SCF3—C6H4], the Rating (dose 100 ppm) is reported as 9.
For `O=C1OC(=Cc2ccc(C(F)(F)F)cc2F)C(O)=C1c1ccc(OC(F)(F)F)cc1` (mixture of isomers) [R=H; R1=4-OCF3—C6H4**; R2=2-F-4-CF3—C6H3], the Rating (dose 100 ppm) was 9.
In the case of `O=C1OC(=Cc2cc(F)cc(C(F)(F)F)c2)C(O)=C1c1ccc(OC(F)(F)F)cc1` (mixture of isomers) [R=H; R1=4-OCF3—C6H4**; R2=3-F-5-CF3—C6H3], the Rating (dose 100 ppm) is reported as 9.
Work on `O=C1OC(=Cc2ccncc2)C(O)=C1c1ccc(OC(F)(F)F)cc1` (mixture of isomers) [R=H; R1=4-OCF3—C6H4**; R2=pyridine-4-yl] yielded a Rating (dose 100 ppm) of 0.
For `COC1=C(c2cccc(C(F)(F)F)c2)C(=O)O/C1=C\c1cccc(C(F)(F)F)c1` [R=CH3; R1=3-CF3—C6H4; R2=3-CF3—C6H4], the Rating (dose 150 ppm) was 0.
Compound `COC1=C(c2cccc(C(F)(F)F)c2)C(=O)O/C1=C\c1ccccc1` [R=CH3; R1=3-CF3—C6H4; R2=C6H5] has a Rating (dose 150 ppm) of 0.
`COC1=C(c2ccc(Cl)cc2)C(=O)O/C1=C\c1ccccc1` [R=CH3; R1=4-Cl—C6H4; R2=C6H5] showed a Rating (dose 150 ppm) of 0.
Work on `COC1=C(c2ccc(OC)cc2)C(=O)O/C1=C\c1cccc(C(F)(F)F)c1` [R=CH3; R1=4-OCH3—C6H4; R2=3-CF3—C6H4] yielded a Rating (dose 150 ppm) of 0.
`COC1=C(c2ccc(OC)cc2)C(=O)O/C1=C\c1ccccc1` [R=CH3; R1=4-OCH3—C6H4; R2=C6H5] was tested, and the Rating (dose 150 ppm) was 0.
`COC1=C(c2ccccc2)C(=O)O/C1=C\c1cccc(C(F)(F)F)c1` [R=CH3; R1=C6H5; R2=3-CF3—C6H4] showed a Rating (dose 150 ppm) of 0.
With `O=C1O/C(=C\c2cccc3ccccc23)C(O)=C1c1cccc2ccccc12` [R=H; R1=1-naphthyl; R2=1-naphthyl] the Rating (dose 150 ppm) was 0.
`O=C1O/C(=C\c2cccc(C(F)(F)F)c2)C(O)=C1c1cccc2ccccc12` [R=H; R1=1-naphthyl; R2=3-CF3—C6H4] gave a Rating (dose 150 ppm) of 0.
Compound `O=C1O/C(=C\c2ccc(Cl)cc2)C(O)=C1c1cccc2ccccc12` [R=H; R1=1-naphthyl; R2=4-Cl—C6H4] has a Rating (dose 150 ppm) of 0.
`O=C1O/C(=C\c2ccc(-c3ccccc3F)cc2)C(O)=C1c1ccccc1F` [R=H; R1=2-F—C6H4; R2=4-(2′-F-biphenyl)] gave a Rating (dose 150 ppm) of 8.
With `O=C1O/C(=C\c2cccc(C(F)(F)F)c2)C(O)=C1c1ccc2ccccc2c1` [R=H; R1=2-naphthyl; R2=3-CF3—C6H4] the Rating (dose 150 ppm) was 9.
For `O=C1O/C(=C\c2cccc3ccccc23)C(O)=C1c1cccc(C=NO)c1` [R=H; R1=3-(C═NOH)—C6H4; R2=1-naphthyl], the Rating (dose 150 ppm) was 0.
In the case of `O=C1O/C(=C\c2ccccc2)C(O)=C1c1cccc(C(F)(F)F)c1` [R=H; R1=3-CF3—C6H4; R2=C6H5], the Rating (dose 150 ppm) is reported as 8.
In the case of `O=C1OC(=Cc2cccc3ccccc23)C(O)=C1c1cccc(CO)c1` [R=H; R1=3-CH2OH—C6H4; R2=1-naphthyl], the Rating (dose 150 ppm) is reported as 0.
Work on `O=Cc1cccc(C2=C(O)/C(=C/c3cccc4ccccc34)OC2=O)c1` [R=H; R1=3-CHO—C6H4; R2=1-naphthyl] yielded a Rating (dose 150 ppm) of 0.
`N#Cc1cccc(C2=C(O)/C(=C/c3ccc(-c4cccc(C#N)c4)cc3)OC2=O)c1` [R=H; R1=3-CN—C6H4; R2=4-(3′-CN-biphenyl)] showed a Rating (dose 150 ppm) of 0.
`O=C1O/C(=C\c2ccccc2-c2cccc(Cl)c2)C(O)=C1c1cccc(Cl)c1` [R=H; R1=3-Cl—C6H4; R2=2-(3′-Cl-biphenyl)] was tested, and the Rating (dose 150 ppm) was 0.
In the case of `O=C1O/C(=C\c2cc(C(F)(F)F)ccc2F)C(O)=C1c1cccc(-c2ccccc2)c1` [R=H; R1=3-biphenyl; R2=2-F-5-CF3—C6H3], the Rating (dose 200 μM) is reported as 9.
`O=C1O/C(=C\c2cccc(C(F)(F)F)c2)C(O)=C1c1cccc(-c2ccccc2)c1` [R=H; R1=3-biphenyl; R2=3-CF3—C6H4] was tested, and the Rating (dose 150 ppm) was 0.
`O=C1O/C(=C\c2cc(F)cc(C(F)(F)F)c2)C(O)=C1c1cccc(-c2ccccc2)c1` [R=H; R1=3-biphenyl; R2=3-F-5-CF3—C6H3] showed a Rating (dose 200 μM) of 9.
`CC(=NO)c1ccc(C2=C(O)C(=Cc3cccc4ccccc34)OC2=O)cc1` [R=H; R1=4-(CH3C═NOH)—C6H4; R2=1-naphthyl] was tested, and the Rating (dose 150 ppm) was 7.
With `O=C1O/C(=C\c2cccc3ccccc23)C(O)=C1c1ccc(C(F)(F)F)cc1` [R=H; R1=4-CF3—C6H4; R2=1-naphthyl] the Rating (dose 150 ppm) was 9.
Compound `Cc1ccc(C2=C(O)/C(=C/c3cccc(C(F)(F)F)c3Cl)OC2=O)cc1` [R=H; R1=4-CH3—C6H4; R2=2-Cl-3-CF3—C6H3] has a Rating (dose 200 μM) of 9.
`Cc1ccc(C2=C(O)/C(=C/c3cc(C(F)(F)F)ccc3Cl)OC2=O)cc1` [R=H; R1=4-CH3—C6H4; R2=2-Cl-5-CF3—C6H3] gave a Rating (dose 200 μM) of 0.
With `N#Cc1ccc(/C=C2\OC(=O)C(c3ccc(C#N)cc3)=C2O)cc1` [R=H; R1=4-CN—C6H4**; R2=4-CN—C6H4] the Rating (dose 150 ppm) was 9.
In the case of `N#Cc1ccc(C2=C(O)C(=Cc3ccc(Cl)cc3)OC2=O)cc1` [R=H; R1=4-CN—C6H4**; R2=4-Cl—C6H4], the Rating (dose 150 ppm) is reported as 9.
Compound `N#Cc1ccc(C2=C(O)C(=Cc3ccc(-c4ccc(C#N)cc4)cc3)OC2=O)cc1` [R=H; R1=4-CN—C6H4; R2=4-(4′-CN-biphenyl)] has a Rating (dose 150 ppm) of 8.
Compound `COC(=O)c1ccc(C2=C(O)/C(=C/c3cccc4ccccc34)OC2=O)cc1` [R=H; R1=4-CO2CH3—C6H4; R2=1-naphthyl] has a Rating (dose 150 ppm) of 9.
With `CC(=O)c1ccc(C2=C(O)C(=Cc3ccccc3C(F)(F)F)OC2=O)cc1` [R=H; R1=4-COCH3—C6H4; R2=2-CF3—C6H4] the Rating (dose 150 ppm) was 0.
Work on `O=C1O/C(=C\c2ccccc2-c2ccc(Cl)cc2)C(O)=C1c1ccc(Cl)cc1` [R=H; R1=4-Cl—C6H4; R2=2-(4′-Cl-biphenyl)] yielded a Rating (dose 150 ppm) of 0.
